Laboratory results taken from patent publication US20240174680A1, “CDK2 INHIBITORS AND METHODS OF USING THE SAME” (Cedilla Therapeutics, Inc., priority 2021, published 2024).

Biological target: CDK2/Cyclin E1 (Homo sapiens, UniProt P24941)
Experiment: CDK2/Cyclin E1 Caliper LabChip EZ Reader mobility shift assay
Format: biochemical
Set-up: purchased Eurofins 14-475
Conditions: read-out: Caliper Assay (CDK2/CCNE1): IC50
Outline: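 Substrate-to-product conversion of fluorescent peptide (1.5 μM final) read by capillary electrophoresis after 100 min reaction, EDTA-quenched. Enzyme (2.5 nM final) and ATP (100 μM final) were preincubated 30 min with inhibitor dilutions first. % activity vs concentration fitted four-parameter for IC50.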

| SMILES | IC50 [nM] |
| --- | --- |
| CNC(=O)[C@@H](NC(=O)[C@@H]1CN(C(=O)c2cnn(Cc3ccccc3)c2)CC12CN(C(=O)[C@H]1CC1(C)C)C2)[C@@H](C)N(C)CC1CCCCC1 [I-266] | 1000 to 10000 |
| CNC(=O)[C@@H](NC(=O)[C@@H]1CN(C(=O)Cc2cnn(Cc3ccccc3)c2)CC12CN(C(=O)[C@H]1CC1(C)C)C2)[C@@H](C)OCc1ccccc1 [I-373] | > 10000 |
| CNC(=O)C(NC(=O)[C@@H]1CN(C(=O)c2cnn(Cc3ccccc3)c2)CC12CN(C(=O)[C@H]1CC1(C)C)C2)c1cccc(C2CCCCC2)n1 (some centres unmarked) [I-391] | ≤ 10 |
| CNC(=O)[C@@H](NC(=O)[C@H]1CN(C(=O)c2cnn(Cc3ccccc3)c2)CC12CN(C(=O)[C@H]1CC1(C)C)C2)[C@@H](C)OCC1CCOCC1 [I-119B] | 1000 to 10000 |
| CC1(C)C[C@@H]1C(=O)N1CC2(CN(C(=O)c3cnn(Cc4ccccc4)c3)C[C@H]2C(=O)N2CCCC(Cc3ccccc3)C2)C1 (some centres unmarked) [I-91A] | > 10000 |
| CCOC(=O)[C@@H]1CCCN(C(=O)[C@@H](NC(=O)[C@@H]2CN(C(=O)c3cnn(Cc4ccccc4)c3)CC23CN(C(=O)[C@H]2CC2(C)C)C3)[C@@H](C)OCC2CCCCC2)C1 [I-484] | ≤ 10 |
| CNC(=O)[C@@H](NC(=O)C1(C)CN(C(=O)c2cnn(Cc3ccccc3)c2)CC12CN(C(=O)[C@H]1CC1(C)C)C2)[C@@H](C)OCc1ccccc1 (stereo partly drawn) [I-498, 6-(1-benzyl-1H-pyrazole-4-carbonyl)-N-((2S,3R)-3-(benzyloxy)-1-(methylamino)-1-oxobutan-2-yl)-2-((S)-2,2-dimethylcyclopropane-1-carbonyl)-8-methyl-2,6-diazaspiro[3.4]octane-8-carboxamide] | 1000 to 10000 |
| COC[C@H]1CCCN(C(=O)[C@@H](NC(=O)[C@@H]2CN(C(=O)c3cncs3)CC23CN(C(=O)[C@H]2CC2(C)C)C3)[C@@H](C)OC[C@H]2CC[C@H](OC)CC2)C1 [I-402] | 10 to 100 |
| CNC(=O)[C@@H](NC(=O)[C@@H]1CN(C(=O)c2cnc[nH]2)CC12CN(C(=O)[C@H]1CC1(C)C)C2)[C@@H](C)OCc1ccccc1 [I-44A] | > 10000 |
| CNC(=O)[C@@H](NC(=O)[C@@H]1CN(C(=O)c2cnn(Cc3ccccc3)c2)CC12CN(C(=O)[C@H]1CC1(C)C)C2)[C@@H](C)OCC1CCC(F)(F)CC1 [I-202] | ≤ 10 |
| CC(O[C@H](C)[C@@H](COC1CCC(F)(F)CC1)NC(=O)[C@@H]1CN(C(=O)c2cncs2)CC12CN(C(=O)[C@H]1CC1(F)F)C2)C1CCC(F)(F)CC1 (some centres unmarked) [I-316] | 100 to 1000 |
| C[C@@H](OCC1CCCCC1)[C@H](NC(=O)[C@@H]1CN(C(=O)c2cnn(Cc3ccccc3)c2)CC12CN(C(=O)[C@H]1CC1(C)C)C2)C(=O)N1CCC(c2nccs2)CC1 [I-445] | ≤ 10 |
| CC1(C)C[C@@H]1C(=O)N1CC2(CN(C(=O)c3cnn(Cc4ccccc4)c3)C[C@H]2C(=O)NCc2ccc(C(F)(F)F)nn2)C1 [I-392] | 1000 to 10000 |
| CNC(=O)[C@@H](NC(=O)[C@@H]1CN(C(=O)c2cnn(Cc3ccccc3)c2)CC12CN(C(=O)[C@H]1CC1(C)C)C2)[C@@H](C)NCC1CCCCC1 [I-269, (S)-6-(1-benzyl-1H-pyrazole-4-carbonyl)-N-((2S,3R)-3-((cyclohexylmethyl)amino)-1-(methylamino)-1-oxobutan-2-yl)-2-((S)-2,2-dimethylcyclopropane-1-carbonyl)-2,6-diazaspiro[3.4]octane-8-carboxamide] | 100 to 1000 |
| COC[C@H]1CCCN(C(=O)[C@@H](NC(=O)[C@@H]2CN(C(=O)c3cncs3)CC23CN(C(=O)C(C)(C)C2CC2)C3)[C@@H](C)OC[C@H]2CC[C@H](O)CC2)C1 [I-431] | 100 to 1000 |
| CC1(C)C[C@@H]1C(=O)N1CC2(CN(C(=O)c3cnn(Cc4ccccc4)c3)C[C@H]2C(=O)N[C@@H]2CC[C@@H]2O)C1 [I-201B] | > 10000 |
| CNC(=O)[C@@H](NC(=O)[C@@H]1CN(C(=O)c2cncs2)CC12CN(CC1COC1)C2)[C@@H](C)OCC12CCC(CC1)OC2 [I-348] | 1000 to 10000 |
| CNC(=O)[C@H](CCCC1CCCCC1)NC(=O)[C@H]1CN(C(=O)c2cnn(Cc3ccccc3)c2)CC12CN(C(=O)[C@H]1CC1(C)C)C2 [I-155B] | 1000 to 10000 |
| C[C@@H](OCc1ccccc1)[C@H](NC(=O)C1CN(C(=O)c2cnn(Cc3ccccc3)c2)CC12CN(C(=O)[C@H]1CC1(C)C)C2)C(=O)O (stereo partly drawn) [I-9, (2S,3R)-2-(6-(1-benzyl-1H-pyrazole-4-carbonyl)-2-((S)-2,2-dimethylcyclopropanecarbonyl)-2,6-diazaspiro[3.4]octane-8-carboxamido)-3-(benzyloxy)butanoic acid] | 100 to 1000 |
| C[C@@H](OCC1CCCCC1)[C@H](NC(=O)[C@@H]1CN(C(=O)c2cnn(Cc3ccccc3)c2)CC12CN(C(=O)[C@H]1CC1(C)C)C2)C(=O)N1CCC(c2cnc[nH]2)CC1 [I-438] | ≤ 10 |
| COC[C@H]1CCCN(C(=O)[C@@H](NC(=O)[C@@H]2CN(C(=O)c3cncs3)CC23CN(C(=O)[C@H]2CC2(C)C)C3)[C@@H](C)OC[C@H]2CC[C@H](OC(F)(F)F)CC2)C1 [I-435] | ≤ 10 |
| CNC(=O)[C@@H](NC(=O)[C@H]1CN(C(=O)C2CCOCC2)CC12CN(C(=O)[C@H]1CC1(C)C)C2)[C@@H](C)OCc1ccccc1 [I-38B] | > 10000 |

| SMILES | IC50 [nM] |
| --- | --- |
| CNC(=O)[C@@H](NC(=O)[C@@H]1CN(C(=O)c2cnn(CC3CC3)c2)CC12CN(C(=O)CC1CC1)C2)[C@@H](C)OCc1ccccc1 [I-53A] | > 10000 |
| CC1(C)C[C@@H]1C(=O)N1CC2(CN(C(=O)c3cnn(Cc4ccccc4)c3)C[C@H]2C(=O)N2CCC[C@@H](OCC3CCCCC3)C2)C1 [I-254] | > 10000 |
| CNC(=O)[C@@H](NC(=O)[C@@H]1CN(C(=O)c2cnn(Cc3ccc(F)cc3)c2)CC12CN(C(=O)[C@H]1CC1(C)C)C2)[C@@H](C)OCc1ccc(F)cc1 [I-136A] | 10 to 100 |
| Cc1ccc(CNC(=O)[C@@H]2CN(C(=O)c3cnn(Cc4ccccc4)c3)CC23CN(C(=O)[C@H]2CC2(C)C)C3)nc1 [I-365] | 1000 to 10000 |
| C[C@@H](OCC1CCOCC1)[C@H](NC(=O)[C@@H]1CN(C(=O)c2cncs2)CC12CN(C(=O)[C@H]1CC1(C)C)C2)C(=O)N1CCC[C@H](COC(F)(F)F)C1 [I-327] | 10 to 100 |
| CC1(C)C[C@@H]1C(=O)N1CC2(CN(C(=O)c3cncs3)C[C@H]2C(=O)NCc2cccc(C3CCCCC3)n2)C1 [I-414] | 10 to 100 |
| C[C@@H](OCc1ccccc1)[C@H](NC(=O)C1CN(C(=O)c2cnn(Cc3ccccc3)c2)CC12CN(C(=O)[C@H]1CC1(C)C)C2)C(=O)N1CCC(F)(F)CC1 (some centres unmarked) [I-85] | 10 to 100 |
| C[C@@H](OCC1CCC(F)(F)CC1)[C@H](NC(=O)[C@@H]1CN(C(=O)c2cn[nH]c2)CC12CN(C(=O)[C@H]1CC1(C)C)C2)C(=O)N1CCOCC1 [I-301, (S)—N-((2S,3R)-3-((4,4-difluorocyclohexyl)methoxy)-1-morpholino-1-oxobutan-2-yl)-2-((S)-2,2-dimethylcyclopropane-1-carbonyl)-6-(1H-pyrazole-4-carbonyl)-2,6-diazaspiro[3.4]octane-8-carboxamide] | ≤ 10 |
| C[C@@H](OCC12CCC(CC1)OC2)[C@H](NC(=O)[C@@H]1CN(C(=O)c2cncs2)CC12CN(C(=O)[C@H]1CC1(C)C)C2)C(=O)N1CCC(OC(F)(F)F)CC1 [I-457] | 10 to 100 |
| C[C@@H](OCc1ccc(Cl)cc1)[C@@H](CO)NC(=O)[C@@H]1CN(C(=O)c2cncs2)CC12CN(C(=O)[C@H]1CC1(C)C)C2 [I-404] | 10 to 100 |
| CNC(=O)[C@@H](NC(=O)[C@@H]1CN(C(=O)c2cncs2)CC12CN(Cc1ccn[nH]1)C2)[C@@H](C)OCC12CCC(CC1)OC2 [I-351] | > 10000 |
| C[C@@H](OCC1CCCCC1)[C@H](NC(=O)C1CN(C(=O)c2cnn(Cc3ccccc3)c2)CC12CN(C(=O)[C@H]1CC1(C)C)C2)C(=O)N1CCOCC1 (some centres unmarked) [I-152 mixture] | ≤ 10 |
| CNC(=O)[C@@H](NC(=O)[C@@H]1CN(C(=O)c2cnn(Cc3ccccc3)c2)CC12CN(C(=O)[C@H]1CC1(C)C)C2)[C@@H](C)OCc1cccnc1 [I-247] | 100 to 1000 |
| CN1CC[C@@H](NC(=O)[C@@H]2CN(C(=O)c3cnn(Cc4ccccc4)c3)CC23CN(C(=O)[C@H]2CC2(C)C)C3)C1=O [I-258] | > 10000 |
| COC[C@H]1CCCN(C(=O)[C@@H](NC(=O)[C@@H]2CN(C(=O)c3cncs3)CC23CN(C(=O)[C@H]2CC2(C)C)C3)[C@@H](C)OC[C@H]2CC[C@@H](OC)CC2)C1 [I-408] | 10 to 100 |
| C[C@@H](OCC1CCCCC1)[C@H](NC(=O)[C@@H]1CN(C(=O)c2cnn(Cc3ccccc3)c2)CC12CN(C(=O)[C@H]1CC1(C)C)C2)C(=O)N1CCC(c2ccncc2)CC1 [I-300] | ≤ 10 |
| CO[C@H]1COCC[C@@H]1NC(=O)[C@H]1CN(C(=O)c2cnn(Cc3ccccc3)c2)CC12CN(C(=O)[C@H]1CC1(C)C)C2 [I-148B] | > 10000 |
| C[C@@H](OCc1ccccc1)[C@H](NC(=O)C1CN(C(=O)c2cnn(Cc3ccccc3)c2)CC12CN(C(=O)[C@H]1CC1(C)C)C2)C(=O)N1CCCCC1 (stereo partly drawn) [I-97, 6-(1-benzyl-1H-pyrazole-4-carbonyl)-N-((2S,3R)-3-(benzyloxy)-1-oxo-1-(piperidin-1-yl)butan-2-yl)-2-((S)-2,2-dimethylcyclopropanecarbonyl)-2,6-diazaspiro[3.4]octane-8-carboxamide] | 10 to 100 |
| CNC(=O)[C@@H](NC(=O)[C@H]1CN(C(=O)c2cnn(CC(F)(F)F)c2)CC12CN(C(=O)CC1CC1)C2)[C@@H](C)OCc1ccccc1 [I-43B] | > 10000 |
| CNC(=O)[C@@H](NC(=O)[C@@H]1CN(Cc2cn[nH]c2)CC12CN(C(=O)[C@H]1CC1(C)C)C2)[C@@H](C)OCc1ccccc1 [I-50A] | > 10000 |
| C[C@@H](OCc1ccccc1)[C@H](NC(=O)C1CN(C(=O)c2cnn(Cc3ccccc3)c2)CC12CN(C(=O)[C@H]1CC1(C)C)C2)C(=O)NCCN (some centres unmarked) [I-31] | 100 to 1000 |
| CNC(=O)[C@@H](NC(=O)[C@@H]1CN(C(=O)c2cnn(Cc3ccccc3)c2)CC12CN(C(=O)[C@H]1CC1(C)C)C2)[C@@H](C)OCCC1CCCCC1 [I-125A] | ≤ 10 |
